Experimental data taken from BindingDB's records for doi:10.1021/jm00024a010 (Boehringer Ingelheim Pharmaceuticals, 1995).

Assays:
[1] = target: T1, Gag-Pol polyprotein [600-1027,R876K]/[600-1155] (Human immunodeficiency virus 1, UniProt P03366, R876K); assay: HIV-1 RT Assay
T1 construct: 600-1027; 600-1155

[2] = target: T2, Gag-Pol polyprotein [600-1027,Y780C]/[600-1155,Y780C] (Human immunodeficiency virus 1, UniProt P03366, Y780C); assay: HIV-1 RT Assay
T2 construct: 600-1027; 600-1155

CCN1c2ncccc2C(=O)N(C)c2cccnc21
IC50 ([1]; pH 7.8, 25 °C): 130 nM

CCC=Nc1ccc2c(n1)N(CC)c1ncccc1C(=O)N2C
IC50 [2]: > 1000 nM | IC50 [1]: 390 nM

CCN1c2ncccc2C(=O)Nc2c(C)cc(C)nc21 [2-ethyl-5,7-dimethyl-2,4,9,15-tetraazatricyclo[9.4.0.0^{3,8}]pentadeca-1(11),3,5,7,12,14-hexaen-10-one]
IC50 ([2]; pH 7.8, 25 °C): > 1000 nM

CCN1c2ncccc2C(=O)N(C)c2ccc(-c3cccc(O)c3)nc21 [2-ethyl-5-(3-hydroxyphenyl)-9-methyl-2,4,9,15-tetraazatricyclo[9.4.0.0^{3,8}]pentadeca-1(11),3,5,7,12,14-hexaen-10-one]
IC50 [1]: 100 nM

CCN1c2ncccc2C(=O)Nc2c(C)cc(N(C)CCO)nc21 [2-ethyl-5-[(2-hydroxyethyl)(methyl)amino]-7-methyl-2,4,9,15-tetraazatricyclo[9.4.0.0^{3,8}]pentadeca-1(11),3,5,7,12,14-hexaen-10-one]
IC50 [2]: > 1000 nM

CCN1c2ncccc2C(=O)Nc2c(C)cc(NCCO)nc21 [2-ethyl-5-[(2-hydroxyethyl)amino]-7-methyl-2,4,9,15-tetraazatricyclo[9.4.0.0^{3,8}]pentadeca-1(11),3,5,7,12,14-hexaen-10-one]
IC50 [2]: > 1000 nM

CCN1c2ncccc2C(=O)Nc2c(C)cc(NCCCO)nc21 [2-ethyl-5-[(3-hydroxypropyl)amino]-7-methyl-2,4,9,15-tetraazatricyclo[9.4.0.0^{3,8}]pentadeca-1(11),3,5,7,12,14-hexaen-10-one]
IC50 [2]: > 1000 nM

CCN1c2ncccc2C(=O)N(C)c2ccc(=O)[nH]c21 [2-ethyl-5-hydroxy-9-methyl-2,4,9,15-tetraazatricyclo[9.4.0.0^{3,8}]pentadeca-1(11),3,5,7,12,14-hexaen-10-one]
IC50 [2]: > 1000 nM

CCN1c2ncccc2C(=O)Nc2c(C)cc(SC)nc21 [2-ethyl-7-methyl-5-(methylsulfanyl)-2,4,9,15-tetraazatricyclo[9.4.0.0^{3,8}]pentadeca-1(11),3,5,7,12,14-hexaen-10-one]
IC50 [2]: > 1000 nM

CCN1c2ncccc2C(=O)Nc2c(C)cc(C(C)C)nc21 [2-ethyl-7-methyl-5-(propan-2-yl)-2,4,9,15-tetraazatricyclo[9.4.0.0^{3,8}]pentadeca-1(11),3,5,7,12,14-hexaen-10-one]
IC50 ([2]; pH 7.8, 25 °C): > 1000 nM

CCN1c2ncccc2C(=O)Nc2c(C)cc(N3CCSCC3)nc21 [2-ethyl-7-methyl-5-(thiomorpholin-4-yl)-2,4,9,15-tetraazatricyclo[9.4.0.0^{3,8}]pentadeca-1(11),3,5,7,12,14-hexaen-10-one]
IC50 [2]: > 1000 nM

CCN1c2ncccc2C(=O)N(C)c2ccc(-c3ncco3)nc21 [2-ethyl-9-methyl-5-(1,3-oxazol-2-yl)-2,4,9,15-tetraazatricyclo[9.4.0.0^{3,8}]pentadeca-1(11),3,5,7,12,14-hexaen-10-one]
IC50 [2]: 560 nM | IC50 [1]: 110 nM

CCN1c2ncccc2C(=O)N(C)c2ccc(-c3cnco3)nc21 [2-ethyl-9-methyl-5-(1,3-oxazol-5-yl)-2,4,9,15-tetraazatricyclo[9.4.0.0^{3,8}]pentadeca-1(11),3,5,7,12,14-hexaen-10-one]
IC50 [2]: 820 nM | IC50 [1]: 220 nM

CCN1c2ncccc2C(=O)N(C)c2ccc(-c3cncs3)nc21 [2-ethyl-9-methyl-5-(1,3-thiazol-5-yl)-2,4,9,15-tetraazatricyclo[9.4.0.0^{3,8}]pentadeca-1(11),3,5,7,12,14-hexaen-10-one]
IC50 [2]: 240 nM | IC50 [1]: 100 nM

CCN1c2ncccc2C(=O)N(C)c2ccc(N3CCCCC3)nc21 [2-ethyl-9-methyl-5-(piperidin-1-yl)-2,4,9,15-tetraazatricyclo[9.4.0.0^{3,8}]pentadeca-1(11),3,5,7,12,14-hexaen-10-one]
IC50 [2]: > 1000 nM

CCN1c2ncccc2C(=O)N(C)c2ccc(-c3ccccn3)nc21 [2-ethyl-9-methyl-5-(pyridin-2-yl)-2,4,9,15-tetraazatricyclo[9.4.0.0^{3,8}]pentadeca-1(11),3,5,7,12,14-hexaen-10-one]
IC50 [1]: 180 nM

CCN1c2ncccc2C(=O)N(C)c2ccc(-c3ccsc3)nc21 [2-ethyl-9-methyl-5-(thiophen-3-yl)-2,4,9,15-tetraazatricyclo[9.4.0.0^{3,8}]pentadeca-1(11),3,5,7,12,14-hexaen-10-one]
IC50 [1]: 100 nM

CCN1c2ncccc2C(=O)N(C)c2ccc(-c3nccs3)nc21 [5,11-dihydro-11-ethyl-5-methyl-2-(2-thiazolyl)-6H-dipyrido[3,2-b:2 ,3-e][1,4]diazepin-6-one]
IC50 [2]: 1100 nM | IC50 [1]: 380 nM

CCN1c2ncccc2C(=O)N(C)c2ccc(-c3cccc(N)c3)nc21 [5,11-dihydro-11-ethyl-5-methyl-2-(3-aminophenyl)-6H-dipyrido[3,2-b:2 ,3-e][1,4]diazepin-6-one]
IC50 [1]: 70 nM

CCN1c2ncccc2C(=O)N(C)c2ccc(N)nc21 [5-amino-2-ethyl-9-methyl-2,4,9,15-tetraazatricyclo[9.4.0.0^{3,8}]pentadeca-1(11),3,5,7,12,14-hexaen-10-one]
IC50 [2]: > 1000 nM | IC50 [1]: > 1000 nM

CN1C(=O)c2cccnc2N(C2CC2)c2nc(Cl)ccc21 [5-chloro-2-cyclopropyl-9-methyl-2,4,9,15-tetraazatricyclo[9.4.0.0^{3,8}]pentadeca-1(11),3,5,7,12,14-hexaen-10-one]
IC50 ([1]; pH 7.8, 25 °C): 90 nM

CCN1c2ncccc2C(=O)Nc2c(C)cc(C(C)(C)C)nc21 [5-tert-butyl-2-ethyl-7-methyl-2,4,9,15-tetraazatricyclo[9.4.0.0^{3,8}]pentadeca-1(11),3,5,7,12,14-hexaen-10-one]
IC50 ([2]; pH 7.8, 25 °C): > 1000 nM | IC50 ([1]; pH 7.8, 25 °C): > 1000 nM
